What was measured:
[1] = system: bovine pancreatic trypsin; test: Trypsin inhibition by BTCI (BAPNA substrate); type: biochemical; details: BTCI 10 µM, peptide 0–10 µM
Description: (§1) The inhibitory activities of BTCI against bovine pancreatic trypsin (25 kDa; A280^1% = 15.90) and chymotrypsin (24 kDa; A280^1% = 20.40) (Sigma Co.) were first determined in the absence of Bk and Bk-related peptides. Briefly, the residual enzymatic activities were assayed by mixing 40 µL of chymotrypsin (28.60 µM) or trypsin (2.57 µM) with BTCI at concentration range of 0–10 µM for trypsin and 0–40 µM for chymotrypsin at 25 °C for 15 minutes. After that, 200 µL of 0.40·mg·mL^−1 N-glutaryl-L-phenylalanine-p-nitroanilide (GPNA) in 50 mM Tris-HCl, 20 mM CaCl2, pH 7.6 for chymotrypsin assay or 0.43 mg·mL^−1 Nα-benzoyl-DL-arginine 4-nitroanilide hydrochloride (BAPNA) in 50 mM Tris-HCl, 20 mM CaCl2, pH 8.2 for trypsin assay were added. Substrate hydrolysis was done for 15 minutes and stopped by adding 30% (v/v) acetic acid. The enzymatic assays were also carried out in the presence of Bk at similar concentration of BTCI. The relative enzymatic activities were evaluated by the liberation of p-nitroanilide, which was monitored at 410 nm using a SpectraMax Plus 384 Microplate Reader spectrophotometer (Molecular Devices, Sunnyvale, CA, USA). The obtained values are an average of three independent measurements. Inhibition curves were obtained by plotting relative activities of the proteases vs. BTCI concentration in the absence or presence of Bk and Bk-related peptides. […]

[2] = system: bovine chymotrypsin; test: Chymotrypsin inhibition by BTCI (GPNA substrate); type: biochemical; details: BTCI 40 µM, peptide 0–10 µM
Description: as §1

[3] = system: BTCI; test: Fluorescence quenching of BTCI by Bk-related peptides; type: binding, Vigna unguiculata; details: for Binding constant Kb (association) of BTCI in complex with peptide / Stern-Volmer quenching constant KSV of BTCI in complex with peptide: BTCI 25 µM, peptide 25-500 µM; for Stern-Volmer quenching constant KSV of BTCI in complex with peptide: excitation 295 nm, emission at 355 nm
Description: Fluorescence measurements were performed at pH 5.0, 7.4 and 9.0 and 25 °C using the Jasco FP-6500 spectrofluorimeter (Jasco Analytical Instruments) coupled to a Jasco ETC-273T Peltier system (Jasco Analytical Instruments) with water circulation. Both excitation and emission slit were fitted to 5.0 nm and the excitation and emission wavelength were 295 nm and 300–400 nm, respectively. The concentration of BTCI was 25 µM, whereas the concentration of Bk and Bk-related peptides varied from 25 to 500 µM. The BTCI in complex with peptides were investigated by fluorescence quenching as a function of pH. The averages of five fluorescence spectra were recorded and processed by the program Spectra Manager (Jasco Analytical Instruments). The fluorescence emissions were fitted according to the classic Stern-Volmer equation (Equation (2)): F0/F = 1 + KSV[Q] (2) where F and F0 are the fluorescence intensities in the presence and absence of quencher, respectively, KSV is Stern-Volmer constant and Q is the concentration of the quencher.
The binding constants for BTCI, Bk and Bk-related peptides interaction were calculated according to Equation (3): Log[(F0 − F)/F] = LogKb + nLog[Q] (3) where Kb is the binding constant and n is the number of binding sites per BTCI [47].

[4] = system: BTCI; test: Dynamic light scattering, BTCI-Bk complex formation; type: binding, Vigna unguiculata
Description: The hydrodynamic properties of the BTCI through the complex formation with Bk and analogues were monitored using DLS technique with laser source operated at 800 nm on the DynaPro LSR model (Wyatt Technology Corporation, Santa Barbara, CA, USA). The internal temperature was controlled by a Peltier system coupled to the detector. The Bk, Bk-related peptides, BTCI and BTCI-Bk, BTCI-Bk-related peptides complexes, were incubated for 30 minutes in 2 mM Tris-HCl pH 7.4 and then centrifuged at 5000 g and filtered ([…]) before the DLS experiments. The average of 100 acquisitions for each measure was considered for BTCI (25 µM) and synthetic Bk-related peptides (25 µM) separately and subsequently for the BTCI-Bk complexes (1:1). The formation of complexes was analyzed at 37 °C, considering the relationship of the scattered light intensity signal and the hydrodynamic diameter of the samples, using the Dynamics V6 program (Wyatt Technology Corporation).

[5] = system: guinea pig (Cavia porcellus) ileum; test: Smooth muscle constriction force assay, guinea pig ileum
Description: Male guinea pigs (Cavia porcellus) weighing between 200 and 300 g and fasted for 24 h were euthanized using an overdose of anesthetic at 120 mg/kg (ketamine and xylazine). The protocol was approved by the Committee on the Ethics of Animal Experiments of the Institute of Biology, University of Brasilia (Proc. Number 737402/2008). Segments of 2 cm from the terminal portion of the ileum were removed and washed in Tyrode’s solution (g/L: 8.00 NaCl,0.20 KCl, 0.20 CaCl2, 0.21 MgCl2), and attached to a glass rod that was immersed in a physiological bath chamber with a capacity of 10 mL containing Tyrode solution at 37 °C. In the opposite region, a thread of silk was attached to the F-60 isometric transducer connected to a polygraph (NARCO Bio-Systems, Houston, TX, USA). The bath was kept aerated constantly with carbogen (95% O2 + 5% CO2). Previously, as a control, smooth muscle response was analyzed using Bk from Sigma Aldrich. Experiments were done in triplicate, and constriction force was analyzed by addition of Bk and analogues in the absence or presence of BTCI, in three concentrations: 1, 5 or 10 µM. The hypotensive effects of the complexes were also evaluated in the presence of trypsin or chymotrypsin. After each experiment, the bath solution was exchanged three times in order to remove the drug used. Statistical analysis was carried out using the Paleontological Statistics (PAST) Software Package for Education and Data Analysis. A value of Student’s t-test p < 0.05 was considered to denote a significant difference.

[Val]^1[Thr]^6-bradykinyl-Gln-Ser [Bk2]
effect of peptide on BTCI inhibition of trypsin [1]: did not interfer in their activities
effect of peptide on BTCI inhibition of chymotrypsin [2]: did not interfer in their activities
binding sites (n) per BTCI molecule ([3]; pH 5.0, 25 °C): 1.04
Binding constant Kb (association) of BTCI in complex with peptide ([3]; pH 5.0, 25 °C): 590 M⁻¹
Stern-Volmer quenching constant KSV of BTCI in complex with peptide ([3]; pH 5.0, 25 °C): 425 M⁻¹
binding sites (n) per BTCI molecule ([3]; pH 7.4, 25 °C): 0.89
Binding constant Kb (association) of BTCI in complex with peptide ([3]; pH 7.4, 25 °C): 220 M⁻¹
Stern-Volmer quenching constant KSV of BTCI in complex with peptide ([3]; pH 7.4, 25 °C): 509 M⁻¹
binding sites (n) per BTCI molecule ([3]; pH 9.0, 25 °C): 1.23
Binding constant Kb (association) of BTCI in complex with peptide ([3]; pH 9.0, 25 °C): 1810 M⁻¹
Stern-Volmer quenching constant KSV of BTCI in complex with peptide ([3]; pH 9.0, 25 °C): 384 M⁻¹
polydispersity of peptide complexed with BTCI (in words) ([4]; 1:1 complex, pH 7.4, 37 °C): moderate polidispersity
hydrodynamic diameter of BTCI in the presence of peptide ([4]; BTCI 25 µM : peptide 25 µM (1:1), 30 min, 2 mM Tris-HCl pH 7.4, 37 °C): increased from 1.7 nm to 3.3 nm
contraction force relative to Bk ([5]; 10 µM, after activation by trypsin treatment): approximately 1.3 fold
smooth muscle contraction when pretreated with BTCI and serine proteases ([5]; data not shown): did not induce muscle contraction
smooth muscle contraction ([5]; free peptide, 1, 5, 10 µM, 37 °C, triplicate): unable to exert their contractive effects
smooth muscle contraction after trypsin pretreatment ([5]; peptide pretreated with trypsin, 1.0, 5.0, 10.0 µM): induced smooth muscle contraction, in a concentration-responsive manner (Figure 7), and at higher levels than Bk in free state

Source: article PMC6271500, “Bowman-Birk Protease Inhibitor from Vigna unguiculata Seeds Enhances the Action of Bradykinin-Related Peptides” (Molecules, 2014)
